Columns and labels:
[1] = tested on: green foxtail; experiment: Test Example 4: herbicidal effect by soil treatment (Table 19, symbol G); type: in vivo, green foxtail (Setaria viridis); conditions: amount of applied herbicide 320 g/ha
Procedure, shortened: (§1)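 In this soil treatment, the formulated compound reached the seeds only through the soil: seeds were buried about 1.5 cm deep in sterilized diluvial soil, then the diluted emulsion was sprayed over the surface. After three weeks at 25° C. to 30° C. in a greenhouse, effects were graded on criteria from an earlier test.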

[2] = tested on: lambsquarters; experiment: Test Example 5: herbicidal effect by foliage application, plastic box (Table 20, symbol O); type: in vivo, lambsquarters (Chenopodium album); conditions: foliage application, 320 g/ha, evaluated three weeks after application
Procedure, shortened: (§2)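 Plants were sown into sterilized diluvial soil under about 1.5 cm cover and kept in a greenhouse at 25° C. to 30° C. Fourteen days on, foliage received an even spray of the diluted emulsion. Herbicidal or crop effect was judged three weeks afterwards.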

[3] = tested on: barnyard grass; experiment: Test Example 4: herbicidal effect by soil treatment (Table 19, symbol H); type: in vivo, barnyard grass (Echinochloa crus-galli); conditions: amount of applied herbicide 320 g/ha
Procedure, shortened: as §1

[4] = tested on: blackgrass; experiment: Test Example 4: herbicidal effect by soil treatment (Table 19, symbol J); type: in vivo, blackgrass (Alopecurus myosuroides); conditions: amount of applied herbicide 320 g/ha
Procedure, shortened: as §1

[5] = tested on: wild oat; experiment: Test Example 5: herbicidal effect by foliage application, plastic box (Table 20, symbol I); type: in vivo, wild oat (Avena fatua); conditions: foliage application, 320 g/ha, evaluated three weeks after application
Procedure, shortened: as §2

[6] = tested on: southern crabgrass; experiment: Test Example 5: herbicidal effect by foliage application, plastic box (Table 20, symbol F); type: in vivo, southern crabgrass (Digitaria ciliaris); conditions: foliage application, 320 g/ha, evaluated three weeks after application
Procedure, shortened: as §2

[7] = tested on: rice flat sedge; experiment: Test Example 3: herbicidal effect by foliage application, Wagner pot (Table 18, symbol E); type: in vivo, rice flat sedge (Cyperus iria); conditions: 320 g/ha
Procedure, shortened: (§3)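 Plants were sown in alluvial soil held under 0.1–0.5 cm standing water and grown 14 days in a greenhouse at 25–30 °C. An emulsifiable formulation, water-diluted to the set dose, was then sprayed onto the foliage, and effects were scored three weeks later using previously defined criteria.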

[8] = tested on: persian speedwell; experiment: Test Example 4: herbicidal effect by soil treatment (Table 19, symbol R); type: in vivo, Persian speedwell (Veronica persica); conditions: amount of applied herbicide 320 g/ha
Procedure, shortened: as §1

[9] = tested on: wild oat; experiment: Test Example 4: herbicidal effect by soil treatment (Table 19, symbol I); type: in vivo, wild oat (Avena fatua); conditions: amount of applied herbicide 320 g/ha
Procedure, shortened: as §1

[10] = tested on: windgrass; experiment: Test Example 4: herbicidal effect by soil treatment (Table 19, symbol L); type: in vivo, windgrass (Apera spica-venti); conditions: amount of applied herbicide 320 g/ha
Procedure, shortened: as §1

[11] = tested on: redroot pigweed; experiment: Test Example 4: herbicidal effect by soil treatment (Table 19, symbol N); type: in vivo, redroot pigweed (Amaranthus retroflexus); conditions: amount of applied herbicide 320 g/ha
Procedure, shortened: as §1

[12] = tested on: green foxtail; experiment: Test Example 5: herbicidal effect by foliage application, plastic box (Table 20, symbol G); type: in vivo, green foxtail (Setaria viridis); conditions: foliage application, 320 g/ha, evaluated three weeks after application
Procedure, shortened: as §2

[13] = tested on: Italian ryegrass; experiment: Test Example 5: herbicidal effect by foliage application, plastic box (Table 20, symbol K); type: in vivo, Italian ryegrass (Lolium multiflorum); conditions: foliage application, 320 g/ha, evaluated three weeks after application
Procedure, shortened: as §2

[14] = tested on: persian speedwell; experiment: Test Example 5: herbicidal effect by foliage application, plastic box (Table 20, symbol R); type: in vivo, Persian speedwell (Veronica persica); conditions: foliage application, 320 g/ha, evaluated three weeks after application
Procedure, shortened: as §2

[15] = tested on: Chinese sprangletop; experiment: Test Example 3: herbicidal effect by foliage application, Wagner pot (Table 18, symbol D); type: in vivo, chinese sprangletop (Leptochloa chinensis); conditions: 320 g/ha
Procedure, shortened: as §3

[16] = tested on: lambsquarters; experiment: Test Example 4: herbicidal effect by soil treatment (Table 19, symbol O); type: in vivo, lambsquarters (Chenopodium album); conditions: amount of applied herbicide 320 g/ha
Procedure, shortened: as §1

[17] = tested on: velvetleaf; experiment: Test Example 5: herbicidal effect by foliage application, plastic box (Table 20, symbol M); type: in vivo, velvetleaf (Abutilon theophrasti); conditions: foliage application, 320 g/ha, evaluated three weeks after application
Procedure, shortened: as §2

[18] = tested on: southern crabgrass; experiment: Test Example 4: herbicidal effect by soil treatment (Table 19, symbol F); type: in vivo, southern crabgrass (Digitaria ciliaris); conditions: amount of applied herbicide 320 g/ha
Procedure, shortened: as §1

[19] = tested on: redroot pigweed; experiment: Test Example 5: herbicidal effect by foliage application, plastic box (Table 20, symbol N); type: in vivo, redroot pigweed (Amaranthus retroflexus); conditions: foliage application, 320 g/ha, evaluated three weeks after application
Procedure, shortened: as §2

[20] = tested on: Italian ryegrass; experiment: Test Example 4: herbicidal effect by soil treatment (Table 19, symbol K); type: in vivo, Italian ryegrass (Lolium multiflorum); conditions: amount of applied herbicide 320 g/ha
Procedure, shortened: as §1

[21] = tested on: false cleavers; experiment: Test Example 5: herbicidal effect by foliage application, plastic box (Table 20, symbol Q); type: in vivo, false cleavers (Galium spurium); conditions: foliage application, 320 g/ha, evaluated three weeks after application
Procedure, shortened: as §2

[22] = tested on: velvetleaf; experiment: Test Example 4: herbicidal effect by soil treatment (Table 19, symbol M); type: in vivo, velvetleaf (Abutilon theophrasti); conditions: amount of applied herbicide 320 g/ha
Procedure, shortened: as §1

[23] = tested on: barnyard grass; experiment: Test Example 5: herbicidal effect by foliage application, plastic box (Table 20, symbol H); type: in vivo, barnyard grass (Echinochloa crus-galli); conditions: foliage application, 320 g/ha, evaluated three weeks after application
Procedure, shortened: as §2

[24] = tested on: blackgrass; experiment: Test Example 5: herbicidal effect by foliage application, plastic box (Table 20, symbol J); type: in vivo, blackgrass (Alopecurus myosuroides); conditions: foliage application, 320 g/ha, evaluated three weeks after application
Procedure, shortened: as §2

[25] = tested on: barnyard grass; experiment: Test Example 3: herbicidal effect by foliage application, Wagner pot (Table 18, symbol H); type: in vivo, barnyard grass (Echinochloa crus-galli); conditions: 320 g/ha
Procedure, shortened: as §3

[26] = tested on: windgrass; experiment: Test Example 5: herbicidal effect by foliage application, plastic box (Table 20, symbol L); type: in vivo, windgrass (Apera spica-venti); conditions: foliage application, 320 g/ha, evaluated three weeks after application
Procedure, shortened: as §2

[27] = tested on: chickweed; experiment: Test Example 5: herbicidal effect by foliage application, plastic box (Table 20, symbol P); type: in vivo, common chickweed (Stellaria media); conditions: foliage application, 320 g/ha, evaluated three weeks after application
Procedure, shortened: as §2

[28] = tested on: chickweed; experiment: Test Example 4: herbicidal effect by soil treatment (Table 19, symbol P); type: in vivo, common chickweed (Stellaria media); conditions: amount of applied herbicide 320 g/ha
Procedure, shortened: as §1

SMILES: COc1ccc(-c2sc3ccc(Cl)cc3c2-c2c(O)c(C)nn(C)c2=O)cc1 [2-103]
- G: green foxtail, herbicidal effect rating [1]: 0 (Herbicidal rate of 5% or less (almost no effect))
- herbicidal effect on O: lambsquarters [2]: 4 (Herbicidal rate of 70% or more and less than 90%)
- H: barnyard grass, herbicidal effect rating [3]: 0 (Herbicidal rate of 5% or less (almost no effect))
- J: blackgrass, herbicidal effect rating [4]: 0 (Herbicidal rate of 5% or less (almost no effect))
- herbicidal effect on I: wild oat [5]: 0 (Herbicidal rate of 5% or less (almost no effect))
- herbicidal effect on F: southern crabgrass [6]: 0 (Herbicidal rate of 5% or less (almost no effect))
- herbicidal effect on E (rice flat sedge), rating 0-5 [7]: 5 (Herbicidal rate of 90% or more (almost completely withered))
- R: persian speedwell, herbicidal effect rating [8]: 5 (Herbicidal rate of 90% or more (almost completely withered))
- I: wild oat, herbicidal effect rating [9]: 0 (Herbicidal rate of 5% or less (almost no effect))
- L: windgrass, herbicidal effect rating [10]: 0 (Herbicidal rate of 5% or less (almost no effect))
- N: redroot pigweed, herbicidal effect rating [11]: 4 (Herbicidal rate of 70% or more and less than 90%)
- herbicidal effect on G: green foxtail [12]: 0 (Herbicidal rate of 5% or less (almost no effect))
- herbicidal effect on K: Italian ryegrass [13]: 0 (Herbicidal rate of 5% or less (almost no effect))
- herbicidal effect on R: persian speedwell [14]: 5 (Herbicidal rate of 90% or more (almost completely withered))
- herbicidal effect on D (Chinese sprangletop), rating 0-5 [15]: 2 (Herbicidal rate of 20% or more and less than 40%)
- O: lambsquarters, herbicidal effect rating [16]: 4 (Herbicidal rate of 70% or more and less than 90%)
- herbicidal effect on M: velvetleaf [17]: 4 (Herbicidal rate of 70% or more and less than 90%)
- F: southern crabgrass, herbicidal effect rating [18]: 0 (Herbicidal rate of 5% or less (almost no effect))
- herbicidal effect on N: redroot pigweed [19]: 3 (Herbicidal rate of 40% or more and less than 70%)
- K: Italian ryegrass, herbicidal effect rating [20]: 0 (Herbicidal rate of 5% or less (almost no effect))
- herbicidal effect on Q: false cleavers [21]: 3 (Herbicidal rate of 40% or more and less than 70%)
- M: velvetleaf, herbicidal effect rating [22]: 3 (Herbicidal rate of 40% or more and less than 70%)
- herbicidal effect on H: barnyard grass [23]: 0 (Herbicidal rate of 5% or less (almost no effect))
- herbicidal effect on J: blackgrass [24]: 1 (Herbicidal rate of 5% or more and less than 20%)
- herbicidal effect on H (barnyard grass), rating 0-5 [25]: 3 (Herbicidal rate of 40% or more and less than 70%)
- herbicidal effect on L: windgrass [26]: 5 (Herbicidal rate of 90% or more (almost completely withered))
- herbicidal effect on P: chickweed [27]: 5 (Herbicidal rate of 90% or more (almost completely withered))
- P: chickweed, herbicidal effect rating [28]: 4 (Herbicidal rate of 70% or more and less than 90%)

Source: patent US20230085307A1, “PYRIDAZINONE COMPOUND AND HERBICIDE” (NISSAN CHEMICAL CORPORATION, priority 2019, published 2023)
